{"source": "patent US7078552B2", "about": "“Combretastatin A-1 phosphate and combretastatin B-1 phosphate prodrugs” (Arizona Board of Regents, priority 2000, dated 2006)", "key": {"[1]": {"system": "P388 lymphocytic leukemia cell line", "assay": "Murine P388 lymphocytic leukemia in vitro cell growth inhibition", "assay_type": "cell-based", "conditions": "P388 cell line"}, "BXPC-3": {"system": "BXPC-3", "assay": "Human cancer cell line growth inhibition, Pancreas-a BXPC-3", "assay_type": "cell-based"}, "NCl-H460": {"system": "NCl-H460", "assay": "Human cancer cell line growth inhibition, Lung-NSC NCl-H460", "assay_type": "cell-based", "conditions": "NCl-H460"}, "DU-I45": {"system": "DU-I45", "assay": "Human cancer cell line growth inhibition, Prostate DU-I45", "assay_type": "cell-based", "conditions": "DU-I45"}, "[2]": {"system": "P388 lymphocytic leukemia cell line", "conditions": "literature (Pettit et al, 1987, 1989); cited from earlier work"}, "[3]": {"system": "tubulin (microtubule assembly)", "conditions": "literature (Pettit et al, 1987, 1989); read-out: IC50 inhibiting microtubule assembly in vitro; cited from earlier work"}, "tubulin": {"system": "tubulin", "conditions": "at equal concentrations; cited from earlier work"}, "P388 leukemia": {"system": "P388 leukemia", "conditions": "early murine P388 leukemia in vivo experiments, compared with combretastatin A-4; cited from earlier work"}}, "note": "pIC50: −log10 of the molar value.", "data": [{"smiles": "COc1ccc(/C=C\\c2cc(OC)c(OC)c(OC)c2)c(O)c1O", "note": "[Compound 1, Combretastatin A-1]", "values": [{"measurement": "Leukemia P388 ED50", "setting": "[1]", "value": 0.251, "unit": "µg/mL"}, {"measurement": "Pancreas-a BXPC-3 GI50", "setting": "BXPC-3", "value": 4.4, "unit": "µg/mL"}, {"measurement": "Lung-NSC NCl-H460 GI50", "setting": "NCl-H460", "value": 0.74, "unit": "µg/mL"}, {"measurement": "Prostate DU-I45 GI50", "setting": "DU-I45", "value": 0.17, "unit": "µg/mL"}, {"measurement": "ED50 against murine P388 lymphocytic leukemia in vitro system", "setting": "[2]", "value": 0.99, "unit": "µg/mL"}, {"measurement": "pIC50", "setting": "[3]", "value": 5.70}, {"measurement": "inhibition of colchicine binding to tubulin", "setting": "tubulin", "value": "~99", "unit": "%"}, {"measurement": "antineoplastic results in vivo", "setting": "P388 leukemia", "value": "more consistent antineoplastic results"}]}]}
